Test [1] deals with Phospho-Rb (Ser807/811) in MCF7 cells. Description: Phospho-Rb expression inhibition in MCF7 cells quantified by in cell Western. The format is cell-based, human. The note with it: Homo sapiens, MCF7, 24 h, 24 hours, in cell Western, read-out: MCF7 pRb IC50. The procedure, abridged: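 MCF7 cells were seeded at 20,000/well, grown overnight, then treated 24 h at 37 °C with compound dilutions (0.1% DMSO from 1000× stocks). Fixed cells were co-stained for phospho-Rb Ser807/811 and total Rb. Near-infrared dual-channel in-cell Western imaging was the read-out.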

The next test has as its system 22RV1 cells. Kind of test: Cell growth inhibition of 22RV1 cells (CellTiter-Glo). The format is cell-based. The note with it: Homo sapiens, 22Rv1, 120 h, 5 days, CellTiter-Glo, read-out: 22RV1 Cell Growh GI50. The gist of the method:
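22RV1 cells were plated in RPMI1640 with FBS (20% in one version, 10% in the other) and dosed next day at various concentrations from DMSO stocks. After 5 days at 37 °C, viability was measured by CellTiter-Glo luminescence.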
(In ATP-based viability assays light output follows the ATP content of the culture.)

As to `CC(C)c1c(C(C)(C)O)cnc2c(F)cc(-c3nc(N[C@@H]4C[C@H]5CO[C@H](O5)[C@H]4O)ncc3Cl)cc12` [Compound 250, (1S,3R,4S,5R)-3-((5-chloro-4-(8-fluoro-3-(2-hydroxypropan-2-yl)-4-isopropylquinolin-6-yl)pyrimidin-2-yl)amino)-6,8-dioxabicyclo[3.2.1]octan-4-ol], the IC50 (commonly the concentration that gives 50% inhibition) in test [1] is not above 40 nM. In addition, in the test on 22RV1 cells, the GI50 (usually the concentration at which growth is held to half of that of the control) is not above 120 nM.
Take `CC(C)(O)c1ccnc2c(F)cc(-c3nc(N[C@@H]4C[C@H]5CO[C@H](O5)[C@H]4O)ncc3Cl)cc12` [Compound 251, (1S,3R,4S,5R)-3-((5-chloro-4-(8-fluoro-4-(2-hydroxypropan-2-yl)quinolin-6-yl)pyrimidin-2-yl)amino)-6,8-dioxabicyclo[3.2.1]octan-4-ol]: the IC50 in test [1] fell in the range of 40 to 150 nM. The GI50 with 22RV1 cells is not above 120 nM.
Taken in the same sequence, the figures for `CC(C)(O)c1cnc2c(F)cc(-c3nc(N[C@@H]4C[C@H]5CO[C@H](O5)[C@H]4O)ncc3Cl)cc2c1` [Compound 253, (1S,3R,4S,5R)-3-((5-chloro-4-(8-fluoro-3-(2-hydroxypropan-2-yl)quinolin-6-yl)pyrimidin-2-yl)amino)-6,8-dioxabicyclo[3.2.1]octan-4-ol] were 150 to 1000 nM and 120 to 450 nM.
Taken in the same sequence, the figures for `CC(C)(O)c1cnc2c(F)cc(-c3nc(N[C@@H]4C[C@H]5CO[C@H](O5)[C@H]4O)ncc3F)cc2c1` [Compound 254, (1S,3R,4S,5R)-3-((5-fluoro-4-(8-fluoro-3-(2-hydroxypropan-2-yl)quinolin-6-yl)pyrimidin-2-yl)amino)-6,8-dioxabicyclo[3.2.1]octan-4-ol] were 150 to 1000 nM and 120 to 450 nM.
On the same counts, the results for `CC(C)(O)c1cc2cc(-c3nc(N[C@@H]4C[C@H]5CO[C@H](O5)[C@H]4O)ncc3Cl)cc(F)c2nn1` [Compound 258, (1S,3R,4S,5R)-3-((5-chloro-4-(8-fluoro-3-(2-hydroxypropan-2-yl)cinnolin-6-yl)pyrimidin-2-yl)amino)-6,8-dioxabicyclo[3.2.1]octan-4-ol] are more than 1000 nM and more than 3000 nM.
On to `Cc1c(-c2nc(N[C@@H]3C[C@H]4CO[C@H](O4)[C@H]3O)ncc2Cl)sc2cc(C(C)(C)O)cnc12` [Compound 260, (1S,3R,4S,5R)-3-((5-chloro-4-(6-(2-hydroxypropan-2-yl)-3-methylthieno[3,2-b]pyridin-2-yl)pyrimidin-2-yl)amino)-6,8-dioxabicyclo[3.2.1]octan-4-ol], for which the IC50 in test [1] is 40 to 150 nM. The GI50 in the test with 22RV1 cells lay in the range of 120 to 450 nM.
Take `O[C@@H]1[C@@H]2OC[C@H](C[C@H]1Nc1ncc(Cl)c(-c3cc(F)c4ncc(CN5CCOCC5)cc4c3)n1)O2` [Compound 261, (1S,3R,4S,5R)-3-((5-chloro-4-(8-fluoro-3-(morpholinomethyl)quinolin-6-yl)pyrimidin-2-yl)amino)-6,8-dioxabicyclo[3.2.1]octan-4-ol]: the IC50 in test [1] lay in the range of 150 to 1000 nM. For the same compound, in the test with 22RV1 cells, the GI50 is 450 to 3000 nM.
Consider `C[C@H]1COC[C@H](C)N1Cc1cnc2c(F)cc(-c3nc(N[C@@H]4C[C@H]5CO[C@H](O5)[C@H]4O)ncc3Cl)cc2c1` [Compound 262, (1S,3R,4S,5R)-3-((5-chloro-4-(3-(((3S,5S)-3,5-dimethylmorpholino)methyl)-8-fluoroquinolin-6-yl)pyrimidin-2-yl)amino)-6,8-dioxabicyclo[3.2.1]octan-4-ol], for which the IC50 in test [1] is 150 to 1000 nM. Also, the GI50 in the test with 22RV1 cells was in the range of 450 to 3000 nM.
On the same counts, the results for `CC(C)[C@@H]1COC(=O)N1c1nc2c(F)cc(-c3nc(N[C@@H]4C[C@H]5CO[C@H](O5)[C@H]4O)ncc3Cl)cc2n1C(C)C` [Compound 263, (R)-3-(6-(5-chloro-2-(((1S,3R,4S,5R)-4-hydroxy-6,8-dioxabicyclo[3.2.1]octan-3-yl)amino)pyrimidin-4-yl)-4-fluoro-1-isopropyl-1H-benzo[d]imidazol-2-yl)-4-isopropyloxazolidin-2-one] are 150 to 1000 nM and more than 3000 nM.
Turning to `CC(C)(O)c1cnc2c(F)cc(-c3nc(N[C@@H]4C[C@H]5CO[C@H](O5)[C@H]4O)ncc3Cl)cc2n1` [Compound 264, (1S,3R,4S,5R)-3-((5-chloro-4-(8-fluoro-3-(2-hydroxypropan-2-yl)quinoxalin-6-yl)pyrimidin-2-yl)amino)-6,8-dioxabicyclo[3.2.1]octan-4-ol], in test [1], the 50% inhibitory concentration (IC50) lay in the range of 150 to 1000 nM. The GI50 in the test on 22RV1 cells is 450 to 3000 nM.
For the compound `Cc1c(-c2nc(N[C@@H]3C[C@H]4CO[C@H](O4)[C@H]3O)ncc2F)sc2c(C(C)C)cnnc12` [Compound 266, (1S,3R,4S,5R)-3-((5-fluoro-4-(4-isopropyl-7-methylthieno[3,2-c]pyridazin-6-yl)pyrimidin-2-yl)amino)-6,8-dioxabicyclo[3.2.1]octan-4-ol], the IC50 in test [1] is not above 40 nM. The GI50 in the test on 22RV1 cells is not above 120 nM.
Taken in the same sequence, the figures for `CC(C)n1c([C@H]2CCOC2)nc2c(F)cc(-c3nc(N[C@@H]4C[C@H]5CO[C@H](O5)[C@H]4O)ncc3Cl)cc21` [Compound 267, (1S,3R,4S,5R)-3-((5-chloro-4-(4-fluoro-1-isopropyl-2-((R)-tetrahydrofuran-3-yl)-1H-benzo[d]imidazol-6-yl)pyrimidin-2-yl)amino)-6,8-dioxabicyclo[3.2.1]octan-4-ol] were 40 to 150 nM and 120 to 450 nM.
`Cc1c(CN2C[C@@H](C)OC2=O)n(C(C)C)c2cc(-c3nc(N[C@@H]4C[C@H]5CO[C@H](O5)[C@H]4O)ncc3F)ccc2c1=O` [Compound 271, (R)-3-((7-(5-fluoro-2-(((1S,3R,4S,5R)-4-hydroxy-6,8-dioxabicyclo[3.2.1]octan-3-yl)amino)pyrimidin-4-yl)-1-isopropyl-3-methyl-4-oxo-1,4-dihydroquinolin-2-yl)methyl)-5-methyloxazolidin-2-one]: the IC50 in test [1] is 150 to 1000 nM. Besides, the GI50 in the test on 22RV1 cells was more than 3000 nM.
On the same counts, the results for `CC(C)n1c(N2CCOC2=O)nc2c(F)cc(-c3nc(N[C@@H]4C[C@H]5CO[C@H](O5)[C@H]4O)ncc3Cl)cc21` [Compound 272, 3-(6-(5-chloro-2-(((1S,3R,4S,5R)-4-hydroxy-6,8-dioxabicyclo[3.2.1]octan-3-yl)amino)pyrimidin-4-yl)-4-fluoro-1-isopropyl-1H-benzo[d]imidazol-2-yl)oxazolidin-2-one] are 40 to 150 nM and 450 to 3000 nM.
On the same counts, the results for `Cc1c(-c2nc(N[C@@H]3C[C@H]4CO[C@H](O4)[C@H]3O)ncc2F)sc2c(C)c(C(C)(C)O)cnc12` [Compound 278, (1S,3R,4S,5R)-3-((5-fluoro-4-(6-(2-hydroxypropan-2-yl)-3,7-dimethylthieno[3,2-b]pyridin-2-yl)pyrimidin-2-yl)amino)-6,8-dioxabicyclo[3.2.1]octan-4-ol] are not above 40 nM and not above 120 nM.
Taken in the same sequence, the figures for `Cc1c(C(C)(C)O)nnc2c(F)cc(-c3nc(N[C@@H]4C[C@H]5CO[C@H](O5)[C@H]4O)ncc3Cl)cc12` [Compound 279, (1S,3R,4S,5R)-3-((5-chloro-4-(8-fluoro-3-(2-hydroxypropan-2-yl)-4-methylcinnolin-6-yl)pyrimidin-2-yl)amino)-6,8-dioxabicyclo[3.2.1]octan-4-ol] were 150 to 1000 nM and not above 120 nM.
As for `Cc1c(C(C)(C)O)nnc2c(F)cc(-c3nc(N[C@@H]4C[C@H]5CO[C@H](O5)[C@H]4O)ncc3F)cc12` [Compound 280, (1S,3R,4S,5R)-3-((5-fluoro-4-(8-fluoro-3-(2-hydroxypropan-2-yl)-4-methylcinnolin-6-yl)pyrimidin-2-yl)amino)-6,8-dioxabicyclo[3.2.1]octan-4-ol], in test [1], the IC50 is 150 to 1000 nM. Further, the GI50 with 22RV1 cells is not above 120 nM.
With `Cc1c(C(C)(C)O)cnc2c(Cl)cc(-c3nc(N[C@@H]4C[C@H]5CO[C@H](O5)[C@H]4O)ncc3F)cc12` [Compound 283, (1S,3R,4S,5R)-3-((4-(8-chloro-3-(2-hydroxypropan-2-yl)-4-methylquinolin-6-yl)-5-fluoropyrimidin-2-yl)amino)-6,8-dioxabicyclo[3.2.1]octan-4-ol], in test [1], the IC50 was not above 40 nM. In the test on 22RV1 cells, the 50% growth inhibitory concentration (GI50) is not above 120 nM.
For the compound `Cc1c(C(C)(C)O)cnc2c(Cl)cc(-c3nc(N[C@@H]4C[C@H]5CO[C@H](O5)[C@H]4O)ncc3Cl)cc12` [Compound 284, (1S,3R,4S,5R)-3-((5-chloro-4-(8-chloro-3-(2-hydroxypropan-2-yl)-4-methylquinolin-6-yl)pyrimidin-2-yl)amino)-6,8-dioxabicyclo[3.2.1]octan-4-ol], in test [1], the IC50 is not above 40 nM. In addition, the 50% growth inhibitory concentration (GI50) with 22RV1 cells is not above 120 nM.
Taken in the same sequence, the figures for `CC(C)(O)c1cnc2c(Cl)cc(-c3nc(N[C@@H]4C[C@H]5CO[C@H](O5)[C@H]4O)ncc3F)cc2c1Cl` [Compound 285, (1S,3R,4S,5R)-3-((4-(4,8-dichloro-3-(2-hydroxypropan-2-yl)quinolin-6-yl)-5-fluoropyrimidin-2-yl)amino)-6,8-dioxabicyclo[3.2.1]octan-4-ol] were not above 40 nM and not above 120 nM.
In the case of `CC(C)(O)c1cnc2c(Cl)cc(-c3nc(N[C@@H]4C[C@H]5CO[C@H](O5)[C@H]4O)ncc3Cl)cc2c1Cl` [Compound 286, (1S,3R,4S,5R)-3-((5-chloro-4-(4,8-dichloro-3-(2-hydroxypropan-2-yl)quinolin-6-yl)pyrimidin-2-yl)amino)-6,8-dioxabicyclo[3.2.1]octan-4-ol], the IC50 in test [1] is not above 40 nM. Further, in the test on 22RV1 cells, the GI50 is not above 120 nM.
Taken in the same sequence, the figures for `Cc1c(CN2CCC[C@@H](O)C2)n(C(C)C)c2cc(-c3nc(N[C@@H]4C[C@H]5CO[C@H](O5)[C@H]4O)ncc3F)ccc2c1=O` [Compound 291, 7-(5-fluoro-2-(((1S,3R,4S,5R)-4-hydroxy-6,8-dioxabicyclo[3.2.1]octan-3-yl)amino)pyrimidin-4-yl)-2-(((R)-3-hydroxypiperidin-1-yl)methyl)-1-isopropyl-3-methylquinolin-4(1H)-one] were 150 to 1000 nM and 120 to 450 nM.
